Results as given in patent US6169181A, “Compounds useful to treat retroviral infections” (Pharmacia & Upjohn Company, priority 1998, dated 2001).
Like-named read-outs stand apart in the source and are kept apart here.

Biological target: HIV-1 protease (Human immunodeficiency virus type 1 group M subtype B, UniProt P04585)
Assay: biochemical
Description: The HIV protease screening assay is based on fluorescently labeled substrate which can be resolved from nonlabeled cleavage product using special beads coated with streptavidin. The substrate is biotinylated at the amino terminal arginine and fluorescently labeled with fluorescein isothiocynate (FITC) at the carboxyl terminal lysine. This assay has been employed to detect novel, nonpeptidic inhibitors of HIV-1 protease. Substrate (20 μM of 0.2 μM), sample (10 μl of desired concentraion), and enzyme (10 μl of 0.1 μM) are added to a 96 well pandex plate. The assay is run in 0.1 M sodium acetate buffer at pH 5.5 in the presence of 1.0 M sodium chloride and 0.05% NP-40 with incubated in the dark for one hour at room temperature. Strepavidin coated polystyrene beads {40 μl of 0.1% (w/v)} are added and the plate is incubated in the dark for an additional half hour. The labeled cleavage product is separated from the unreacted substrate via filtration and is read on the Idexx screen machine. The data are analyzed by appropriate computer algorithms to ascertain percent inhibition values.

[1] = Table I, Dose 0.123 μM, read-out: Protease % Inhib
[2] = Table I, Dose 0.370 μM, read-out: Protease % Inhib
[3] = Table I, Dose 1.100 μM, read-out: Protease % Inhib
[4] = Table I, Dose 3.300 μM, read-out: Protease % Inhib
[5] = Table I, Dose 10.000 μM, read-out: Protease % Inhib
[6] = Table I, Dose 30.000 μM, read-out: Protease % Inhib
[7] = Table II, enzyme HIV-1, DOSE 0.123 (unit not given)
[8] = Table II, enzyme HIV-1, DOSE 0.370 (unit not given)
[9] = Table II, enzyme HIV-1, DOSE 1.100 (unit not given)
[10] = Table II, enzyme HIV-1, DOSE 3.300 (unit not given)
[11] = Table II, enzyme HIV-1, DOSE 10.000 (unit not given)
[12] = Table II, enzyme HIV-1, DOSE 30.000 (unit not given)

| Structure (SMILES) | inhibition at 0.123 µM [1] | inhibition at 0.37 µM [2] | inhibition at 1.1 µM [3] | inhibition at 3.3 µM [4] | inhibition at 10 µM [5] | inhibition at 30 µM [6] | further results |
| --- | --- | --- | --- | --- | --- | --- | --- |
| CCCCCC1(CCCCC)CC(O)=C(C(CC)c2cccc(NS(=O)(=O)c3ccc(C#N)cc3)c2)C(=O)O1 (stereo not drawn) [Example 64, 4-Cyano-N-[3-[1-(4-Hydroxy-2-oxo-6,6-dipentyl-5,6-dihydro-2H-pyran-3-yl)-propyl]-phenyl]-benzenesulfonamide] | 27.9% | 50.8% | 75.6% | 80.9% | 82% | 84.4% |  |
| CCC(C1=C(O)CC(CC(C)C)(CC(C)C)OC1=O)c1cccc(NS(=O)(=O)c2ccc(C#N)cn2)c1 (racemic) [Example 304, 5-Cyano-N-[3-(1-[5,6-dihydro-6,6-diisobutyl-4-hydroxy-2-oxo-2H-pyran-3-yl]propyl)phenyl]-2-pyridinesulfonamide] |  |  |  |  |  |  | PROTEASE % INHIB. [7]: 92.01%; PROTEASE % INHIB. [8]: 93.28%; PROTEASE % INHIB. [9]: 96.47%; PROTEASE % INHIB. [10]: 100.47%; PROTEASE % INHIB. [11]: 107.61%; PROTEASE % INHIB. [12]: 79.68% |
| CCC(CCN=[N+]=[N-])c1cc(O)c(C(c2cccc(NS(=O)(=O)c3cn(C)cn3)c2)C2CC2)c(=O)o1 (stereo not drawn) [Example 109, N-(3-{[6-(3-Azido-1-ethyl-propyl)-4-hydroxy-2-oxo-2H-pyran-3-yl]-cyclopropyl-methyl}-phenyl)-1-methyl-1H-imidazole-4-sulfonamide] | 105% | 99.3% | 104% | 101% | 109% | 109% |  |
| CCCC1(CCc2ccc(F)cc2)CC(O)=C(C(c2cccc(NS(=O)(=O)c3ccc(C#N)cn3)c2)C(C)(C)C)C(=O)O1 (stereo not drawn) [Example 253, N-[3-{1-(4-Hydroxy-5,6-dihydro-2-oxo-6-(2-(4-fluorophenyl)ethyl)-6-propyl-2H-pyran-3-yl)-2,2-dimethylpropyl}phenyl]-5-cyanopyridine-2-sulfonamide] | 94% | 96.8% | 97.6% | 95.9% | 97% | 98.5% |  |
| CN(c1cccc(C(c2c(O)c3c(oc2=O)CCCCCC3)C2CC2)c1)S(=O)(=O)c1ccccc1 (stereo not drawn) [Example 194, N-methyl-N-[3-[cyclopropyl(5,6,7,8,9,10-hexahydro-4-hydroxy-2-oxo-2H-cycloocta[b]pyran-3-yl)methyl]phenyl]-benzenesulfonamide] | < 10% | 20% | 53.9% | 75.2% | 85.5% | 85.2% |  |
| COCCOCCCc1cc(O)c(C(c2cccc(NS(=O)(=O)c3cn(C)cn3)c2)C2CC2)c(=O)o1 (stereo not drawn) [Example 104, N-(3-{Cyclopropyl-[4-hydroxy-6-(3-{2-methoxy-ethoxy}-propyl)-2-oxo-2H-pyran-3-yl]-methyl}-phenyl)-1-methyl-1H-imidazole-4-sulfonamide] | < 10% | 61.7% | 81.8% | 93.3% | 96.4% | 109% |  |
| CCCC1(CCC)CC(O)=C(C(CC)c2cccc(NS(=O)(=O)c3ccc(C#N)cn3)c2)C(=O)O1 (stereo not drawn) [Example 262] | 91.8% | 96.6% | 97.1% | 95.4% | 94.2% | 89.2% |  |
| CCC(CC1CCOCC1)c1cc(O)c(C(c2cccc(NS(=O)(=O)c3cn(C)cn3)c2)C2CC2)c(=O)o1 (stereo not drawn) [Example 135, N-(3-{Cyclopropyl-[6-(1-(tetrahydropyran-4-ylmethyl)-propyl)-4-hydroxy-2-oxo-2H-pyran-3-yl]-methyl}-phenyl)-1-methyl-1H-imidazole-4-sulfonamide] | 33.2% | 84.5% | 99.1% | 96.9% | 101% |  | inhibition at 30.9 µM (read-out: Protease % Inhib): 102% |
| CCCCCC1(CCCCC)CC(O)=C(C(CC)c2cccc(NS(=O)(=O)c3cn(C)cn3)c2)C(=O)O1 (stereo not drawn) [Example 63, N-[3-[1-(4-Hydroxy-2-oxo-6,6-dipentyl-5,6-dihydro-2H-pyran-3-yl)-propyl]-phenyl]-1-methyl-1H-imidazole-4-sulfonamide] |  |  |  |  |  |  | inhibition at 0.123 µM (read-out: Protease % Inhib): 68.9%; inhibition at 0.37 µM (read-out: Protease % Inhib): 79.6%; inhibition at 1.1 µM (read-out: Protease % Inhib): 88.6%; inhibition at 3.3 µM (read-out: Protease % Inhib): 87.4%; inhibition at 10 µM (read-out: Protease % Inhib): 83.6%; inhibition at 30 µM (read-out: Protease % Inhib): 78.8% |
| CC[C@H](Cc1ccccc1)c1cc(O)c(C(c2cccc(NS(=O)(=O)c3ccc(C#N)cc3)c2)C2CC2)c(=O)o1 (single isomer, unassigned) [Example 149, N-(3-(R or S)-{Cyclopropyl-[6-(1-(R)-ethylphenethyl)-4-hydroxy-2-oxo-2H-pyran-3-yl]-methyl}-phenyl)-4-cyanobenzenesulfonamide] |  |  |  |  |  |  | PROTEASE % INHIB. (Table I, Dose 0.123 μM): 80.51%; PROTEASE % INHIB. (Table I, Dose 0.370 μM): 87.52%; PROTEASE % INHIB. (Table I, Dose 1.100 μM): 96.32%; PROTEASE % INHIB. (Table I, Dose 3.300 μM): 92.86%; PROTEASE % INHIB. (Table I, Dose 10.000 μM): 97.12%; PROTEASE % INHIB. (Table I, Dose 30.000 μM): 95.99% |
| O=c1oc(C(CC2CC2)CC2CC2)cc(O)c1C(c1cccc(NS(=O)(=O)c2cccc3cccnc23)c1)C1CC1 (stereo not drawn) [Example 96, N-(3-{Cyclopropyl-[6-(2-cyclopropyl-1-cyclopropylmethyl-ethyl)-4-hydroxy-2-oxo-2H-pyran-3-yl]-methyl}-phenyl)-8-quinolinesulfonamide] | 94.2% | 119% | 122% | 111% | 111% | 109% |  |
| CCCC1(CCc2ccccc2)CC(O)=C(C(c2cccc(NS(=O)(=O)c3ccc(C#N)cn3)c2)C2CC2)C(=O)O1 (stereo not drawn) [Example 311] |  |  |  |  |  |  | PROTEASE % INHIB. [7]: 86.51%; PROTEASE % INHIB. [8]: 91.49%; PROTEASE % INHIB. [9]: 101.8%; PROTEASE % INHIB. [10]: 96.5%; PROTEASE % INHIB. [11]: 93.77%; PROTEASE % INHIB. [12]: 77.63% |
| N#Cc1ccc(S(=O)(=O)Nc2cccc(C(c3c(O)cc(C(CC4CC4)CC4CC4)oc3=O)C3CC3)c2)cc1 (stereo not drawn) [Example 95, 4-Cyano-N-(3-{cyclopropyl-[6-(2-cyclopropyl-1-cyclopropylmethyl-ethyl)-4-hydroxy-2-oxo-2H-pyran-3-yl]-methyl}-phenyl)-benzenesulfonamide] | 91.2% | 102% | 106% | 113% | 110% | 113% |  |
| CCCC1(CCc2ccccc2)CC(O)=C(C(CC)c2cccc(NS(=O)(=O)c3ccc(C#N)cn3)c2)C(=O)O1 (stereo not drawn) [Example 263, N-[3-{1-(4-Hydroxy-5,6-dihydro-2-oxo-6-phenethyl-6-propyl-2H-pyran-3-yl)propyl}phenyl]-5-cyanopyridine-2-sulfonamide] |  |  |  |  |  |  | inhibition at 0.123 µM (read-out: Protease % Inhib): 98.1%; inhibition at 0.37 µM (read-out: Protease % Inhib): 99%; inhibition at 1.1 µM (read-out: Protease % Inhib): 99.1%; inhibition at 3.3 µM (read-out: Protease % Inhib): 98.1%; inhibition at 10 µM (read-out: Protease % Inhib): 96.2%; inhibition at 30 µM (read-out: Protease % Inhib): 88.2% |
| CCC(CCOCCOC)c1cc(O)c(C(c2cccc(NS(=O)(=O)c3cn(C)cn3)c2)C2CC2)c(=O)o1 (stereo not drawn) [Example 105, N-(3-{Cyclopropyl-[6-(1-ethyl-3-{2-methoxy-ethoxy}-propyl)-4-hydroxy-2-oxo-2H-pyran-3-yl]-methyl}-phenyl)-1-methyl-1H-imidazole-4-sulfonamide] | 101% | 115% | 107% | 111% | 111% | 111% |  |
